Results: patent publication US10894777B2, “TG2 inhibitor piperazine compounds and uses thereof” (UNIVERSITY OF OTTAWA, priority 2016, dated 2021)

Legend:
HaCaT cells = assay: Matrigel invasion assay, HaCaT cells; assay type: cell-based, human; settings: 20 μM, 24 h
TS543 neurospheres = assay: Neurosphere growth, TS543 (mesenchymal); assay type: cell-based, human; settings: 25 μM, 2 weeks
Description: Neurosphere cultures. TS543, TS565 and TS676, which represent the mesenchymal, proneural and classical glioblastoma subtypes respectively, based on transcriptomic and genomic analysis, were obtained from C. Brennan through the Monoclonal Antibody Core Facility at Memorial Sloan Kettering Cancer Center (Brennan, C. et al., PLoS One 4(11):e7752, 2009; Pyonteck, S. M. et al., Nature Med. 19(10):1264-72, 2013; Rohle, D. et al., Science 340(6132):626-30, 2013) and maintained in NeuroCult™ NS-A Proliferation Kit (Human) (Stem Cell Technologies) according to manufacturer's instructions. (NeuroCult Medium was supplemented with 20 ng/mL FGF, 50 ng/mL EGF and 0.0002% Heparin). To prevent neurosphere attachment to the bottom of the cell culture plates, Poly 2-hydroxyethyl methacrylate (PHM) was used. 6-well plates were coated with 1 mL/well of 1% PHM in ethanol (w/v). The plates were air dried in a sterile environment overnight and washed once with PBS and they were kept in the fridge in a sterile environment until use. For passaging, neurospheres were triturated according to instructions and 5,000 cells were seeded in each well in 2 mL medium. For treatments with TG2 inhibitors, cells were inoculated in medium containing 25 μM TG2 inhibitor or DMSO control. 200 μL of medium containing the 25 μM TG2 inhibitor or DMSO was added every other day. At the end of 2 weeks, 20-50 random microscopic images were captured for each group. The average volume of each sphere image was determined using Image J by a person blinded for neurosphere lines and treatments and volumes were calculated from the area data and used for comparison.

[1] = tested on: TG2 fusion protein mCer-TG2-YFP; assay: Fluorescence lifetime imaging (FLIM) of mCer-TG2-YFP conformation, SCC-13 cells; assay type: cell-based, human; settings: NC9, VA4, VA5 0-20 μM 24 or 48 h; Cp4d 0-10 μM 48 h
Protocol: We monitored the impact of each inhibitor on intracellular TG2 structure using FLIM (Fluorescence Lifetime Imaging Microscopy). FLIM is a quantitative method of assessing fluorescence lifetime that measures energy transfer between donor and accept probes Fluorescence lifetime is measured in nanoseconds and a short lifetime correlates with close contact between probes (FIG. 29B). An advantage of this method is that fluorescent lifetimes are independent of probe concentration. In the present experiments, we expressed in cells a TG2 fusion protein in which the donor probe (mCER) is fused to the N-terminus and the acceptor probe (YFP) at the C-terminus (FIG. 29B). mCER and YFP comprise an ideal donor/acceptor pair; the donor probe is excited by laser illumination and energy transfer to the acceptor is monitored. The fluorescent lifetime is shorter when TG2 is in the closed conformation which brings mCER and YFP close together. SCC-13 cells were electroporated with empty vector, mCER-TG2 or mCER-TG2-YFP.
Fluorescence lifetime imaging. Fluorescence lifetime images were acquired using FLIM system (Alba 5 from ISS). […] Emission was observed through bandpass filter 480/35 nm (Chroma Technology) and detected by a photomultiplier H7422-40 (Hamamatsu). FLIM data were acquired using time-domain modality (SPC-830 TCSPC module from Becker and Hickl GmbH). […] To account for intensity heterogeneity within single intensity images, two to five consecutive scans were acquired and summed to build FLIM intensity image for lifetime analysis. […] FLIM data were analyzed using VistaVision Suite software (Vista v.213 from ISS). Lifetime images were generated by fitting data using single exponential intensity decay model. Intensity threshold for lifetime analysis was set of at least 3-fold above the intensity of dim cells and fitting procedure was performed for binned pixels at level of 3 (7×7 pixels). Lifetime distribution within image is represented with histogram showing pixel frequency of specific lifetime. The average lifetime values with standard deviations were calculated based on all processed pixels in lifetime image. FRET values were calculated according to the formula ET=1−(τDA/τD), where τD is the lifetime of donor (mCer-TG2) and τDA is the lifetime of donor-acceptor pair (mCer-TG2—YFP).

TG2 [2] = molecular target: T1, TG2 (Homo sapiens, UniProt P21980); assay: Colorimetric transamidase activity assay (AL5 substrate), hTG2; assay type: biochemical
T1 sequence (P21980 1-687): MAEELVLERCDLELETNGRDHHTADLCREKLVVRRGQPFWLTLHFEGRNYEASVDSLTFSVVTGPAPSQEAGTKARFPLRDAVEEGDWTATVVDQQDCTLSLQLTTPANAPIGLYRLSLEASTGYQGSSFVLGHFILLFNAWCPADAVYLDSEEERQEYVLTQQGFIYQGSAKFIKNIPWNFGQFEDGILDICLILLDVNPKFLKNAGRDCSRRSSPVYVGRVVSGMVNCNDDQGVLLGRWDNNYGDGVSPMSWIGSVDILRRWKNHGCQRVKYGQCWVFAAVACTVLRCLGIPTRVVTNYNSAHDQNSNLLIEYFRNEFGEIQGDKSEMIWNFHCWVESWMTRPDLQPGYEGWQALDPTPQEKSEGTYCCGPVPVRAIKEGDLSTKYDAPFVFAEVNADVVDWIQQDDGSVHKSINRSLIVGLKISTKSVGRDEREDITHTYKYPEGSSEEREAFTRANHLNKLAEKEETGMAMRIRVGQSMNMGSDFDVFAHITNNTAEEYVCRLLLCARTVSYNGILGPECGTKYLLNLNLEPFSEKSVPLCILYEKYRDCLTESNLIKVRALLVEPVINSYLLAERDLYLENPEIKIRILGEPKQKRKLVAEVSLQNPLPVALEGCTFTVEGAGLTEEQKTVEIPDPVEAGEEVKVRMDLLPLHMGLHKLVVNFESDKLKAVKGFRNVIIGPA
Protocol: In Vitro Assays. Colorimetric transamidase activity assay. The activities of hTG1, hTG2 and hTG6 were measured via a colorimetric assay using the chromogenic substrate Cbz-Glu(γ-p-nitrophenyl ester)Gly (AL5). The assay was conducted at 25° C. in 100 mM MOPS buffer (pH 6.5) containing 3.0 mM CaCl2 and 50 μM EDTA. […] A stock solution of AL5 was prepared in DMSO such that the final concentration of this co-solvent was constant at 2.5% v/v. Stock solutions of the inhibitors were made in the buffer system previously described. The reaction was initiated with the addition of 40-60 mU/mL of the respective enzyme (0.10 μM hTG1, 0.25 μM hTG2 or 0.32 μM hTG6). Product formation was monitored at 405 nm in a polystyrene 96-well microplate using a BioTek Synergy 4 plate reader. […] Observed first-order rate constants of inactivation (kobs) were determined from non-linear regression fit to a mono-exponential model (Equation 1) of the observed absorbance of the enzymatic hydrolysis product, p-nitrophenolate (pNP). […] Experiments were done in triplicate and variation between repeats was less than 30%.

TG2 [3] = molecular target: T1, TG2; assay: Inhibitor modulation of recombinant TG2 conformation (native gel); assay type: biochemical; parameters: made in house; settings: 500 μM inhibitor 1 h, then 0 or 500 μM GTP
Protocol: Inhibitor modulation of recombinant TG2 conformation. Recombinant TG2 protein was prepared in the Center for Biomolecular Therapeutics by Dr. Eric Toth (University of Maryland School of Medicine). […] In some experiments, inhibitor and GTP were added simultaneously. Laemmli native loading buffer was added, and 6 μg of protein was electrophoresed on a native 4% to 6% acrylamide gel and electrophoresed at 125 V for 45 min at 4° C. using Tris-glycine running buffer (Pinkas, D. M. et al., PLoS Biol 5:e327, 2007; Begg, G. E. et al., Proc. Natl. Acad. Sci. USA 103:19683-8, 2006). The gel was subsequently fixed in 40% methanol/10% acetic acid for 30 min, stained 30 minutes with 0.25% Coomassie R-250, destained overnight with 10% methanol/10% acetic acid and photographed.

SMILES	invasion through matrigel (HaCaT cells)	sphere growth, TS543 (TS543 neurospheres)	fluorescence lifetime of mCer-TG2-YFP [1]	kobs (10^−3 min^−1), TG2 (TG2 [2]; Table 9, Kitz and Wilson conditions, inhibitor concentration adjusted for competition with substrate)	recombinant TG2 conformation, pre-incubation with inhibitor (TG2 [3])	reduction in the inhibition binding constant (TG2 [2]; compared to NC9)	kinact (TG2 [2]; Table 8, read-out: kinact (converted)) [s⁻¹]	kinact/KI (TG2 [2]; read-out: kinact/KI (10^3M^−1 min^−1), Table 8) [M⁻¹ s⁻¹]
C=CC(=O)NCCCC[C@H](NC(=O)OCc1ccccc1)C(=O)NCCOCCOCCNS(=O)(=O)c1cccc2c(N(C)C)cccc12 [NC9]	suppressed	suppressed sphere growth	markedly increased	390 ± 49 10^−3 min^−1	shifted TG2 from the closed to extended conformation and that this was not reversed by GTP addition	–	–	–
C=CC(=O)NCCCC[C@H](NC(=O)OCc1ccccc1)C(=O)N1CCN(S(=O)(=O)c2cccc3c(N(C)C)cccc23)CC1 [VA4, (S)-benzyl(6-acrylamido-1-(4-((5-(dimethylamino)naphthalen-1-yl)sulfonyl)piperazin-1-yl)-1-oxohexan-2-yl)carbamate]	suppressed	suppressed sphere growth	markedly increased	–	shifted TG2 from the closed to extended conformation and that this was not reversed by GTP addition	greater than two-fold reduction	–	–
C=CC(=O)NCCCC[C@H](NC(=O)OCc1ccccc1)C(=O)N1CCN(C(=O)c2cc3ccc(O)cc3oc2=O)CC1 [VA5, (S)-Benzyl(6-acrylamido-1-(4-(7-hydroxy-2-oxo-2H-chromene-3-carbonyl)piperazin-1-yl)-1-oxohexan-2-yl)carbamate]	suppressed	promoted growth	markedly increased	–	shifted TG2 from the closed to extended conformation and that this was not reversed by GTP addition	–	0.0115	1040
